Literature values, collected in patent publication US20120059013A1, “METHOD OF TREATING EARLY MORNING AKINESIA IN SUBJECTS HAVING PARKINSON'S DISEASE” (priority 2010, published 2012).

Legend:
[1] = humans
[2] = test system: hepatic cytochrome P450 enzymes; details: humans

Half-life [1]: long half-life
Oral bioavailability [1]: high oral bioavailablity
SMILES: CCCN[C@H]1CCc2nc(N)sc2C1 [Pramipexole, (S)-2-amino-4,5,6,7,-tetrahydro-6-(propylamino)benzothiazole]
Interaction with hepatic cytochrome P450 enzymes [2]: no significant interaction with hepatic cytochrome P450 enzymes
